Assay results as given in PMC3265452 (PLoS Neglected Tropical Diseases, 2012).
Counter-ions that a name gives are not always drawn. Like-named read-outs stand apart in the source and are kept apart here.

Target: AaDOP2 (Aedes aegypti, UniProt H6D5H2)
Assay: AaDOP2 antagonist screen of the LOPAC1280 library (HEK-CRELuc-Aadop2 cells, luminescence)
Assay type: cell-based
[1] = 10 µM compound, 300 nM dopamine, 2 hr, hit = compound effect <20

Sequence of AaDOP2 (H6D5H2 1-476): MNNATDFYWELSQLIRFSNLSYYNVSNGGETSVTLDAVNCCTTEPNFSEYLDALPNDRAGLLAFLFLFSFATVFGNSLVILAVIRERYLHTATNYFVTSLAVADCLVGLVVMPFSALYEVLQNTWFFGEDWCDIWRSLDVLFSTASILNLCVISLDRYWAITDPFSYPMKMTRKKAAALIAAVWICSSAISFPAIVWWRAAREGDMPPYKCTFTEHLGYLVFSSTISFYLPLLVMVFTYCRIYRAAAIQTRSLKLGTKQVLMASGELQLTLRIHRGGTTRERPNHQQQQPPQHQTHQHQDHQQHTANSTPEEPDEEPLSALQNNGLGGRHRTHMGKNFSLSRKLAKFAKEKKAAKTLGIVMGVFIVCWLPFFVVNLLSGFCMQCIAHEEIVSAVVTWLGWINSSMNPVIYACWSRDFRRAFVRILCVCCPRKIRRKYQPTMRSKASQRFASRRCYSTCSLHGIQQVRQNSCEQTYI

Row | Compound | Compound effect (percent receptor signaling in presence of test compound, relative lux units relative to the SCH23390 control) | Compound effect (percent receptor signaling in presence of test compound, relative lux units relative to the SCH23390 control) [1]
1 | 2-Methylthioadenosine diphosphate trisodium [Compound 826] | 92 | –
2 | 2-Methylthioadenosine triphosphate tetrasodium [Compound 120] | 99 | –
3 | 17alpha-hydroxyprogesterone [Compound 593] | 83 | –
4 | CCOC(=O)[C@]12CC1/C(=N\O)c1ccccc1O2 (mixture of isomers) [Compound 318, CPCCOEt] | 58 | –
5 | CC(N)(Cc1ccc(O)cc1)C(=O)O (racemic) [Compound 1, DL-alpha-Methyl-p-tyrosine] | 95 | –
6 | O=C(O)C1CCCNC1 (racemic) [Compound 5, (±)-Nipecotic acid] | 99 | –
7 | NC[C@H](O)c1ccc(O)c(O)c1.O=C(O)C(O)C(O)C(=O)O (racemic) [Compound 22, (±)-Norepinephrine (+)bitartrate] | – | 102%
8 | NC(CCP(=O)(O)O)C(=O)O (racemic) [Compound 31, (±)-2-Amino-4-phosphonobutyric acid] | 124 | –
9 | NC(CP(=O)(O)O)C(=O)O (racemic) [Compound 55, (±)-2-Amino-3-phosphonopropionic acid] | 102 | –
10 | NC(CCCCCP(=O)(O)O)C(=O)O (racemic) [Compound 57, (±)-2-Amino-7-phosphonoheptanoic acid] | 93 | –
11 | NC(CCCP(=O)(O)O)C(=O)O (racemic) [Compound 58, (±)-2-Amino-5-phosphonopentanoic acid] | – | 89%
12 | CCC1(c2ccc(N)cc2)CCC(=O)NC1=O (racemic) [Compound 109, (±)-p-Aminoglutethimide] | 106 | –
13 | NC1CCN(O)C1=O (racemic) [Compound 110, (±)-HA-966] | 107 | –
14 | N[C@@]1(C(=O)O)CC[C@@H](C(=O)O)C1 (racemic) [Compound 130, trans-(±)-ACPD] | – | 116%
15 | C=CCN1CC[C@@]2(C)c3cc(O)ccc3C[C@@H]1[C@@H]2C.Cl (racemic) [Compound 131, (±)-N-Allylnormetazocine hydrochloride] | 105 | –
16 | CN(C)CCC(c1ccc(Br)cc1)c1ccccn1.O=C(O)/C=C\C(=O)O (racemic) [Compound 165, (±)-Brompheniramine maleate] | – | 63%
17 | CCCCS(=N)(=O)CCC(N)C(=O)O (racemic) [Compound 168, DL-Buthionine-[S,R]-sulfoximine] | 77 | –
18 | NCC(CC(=O)O)c1ccc(Cl)cc1 (racemic) [Compound 177, (±)-Baclofen] | – | 111%
19 | COC(=O)C1=C(C)NC(C)=C([N+](=O)[O-])C1c1ccccc1C(F)(F)F (racemic) [Compound 203, (±)-Bay K 8644] | 73 | –
20 | CN(C)CCC(c1ccc(Cl)cc1)c1ccccn1.O=C(O)/C=C\C(=O)O (racemic) [Compound 243, (±)-Chlorpheniramine maleate] | 77 | –
21 | COC(=O)C(N)Cc1ccc(Cl)cc1.Cl (racemic) [Compound 248, DL-p-Chlorophenylalanine methyl ester hydrochloride] | – | 71%
22 | NC(Cc1ccc(Cl)cc1)C(=O)O (racemic) [Compound 285, (±)-p-Chlorophenylalanine] | – | 62%
23 | NC1CONC1=O (racemic) [Compound 291, DL-Cycloserine] | – | 94%
24 | O=C(O)C1CN(CCCP(=O)(O)O)CCN1 (racemic) [Compound 329, (±)-CPP] | 91 | –
25 | CC(C)(C)NCC(O)COc1cccc2[nH]c(=O)[nH]c12.Cl (racemic) [Compound 334, (±)-CGP-12177A hydrochloride] | – | 97%

Row | Compound | Compound effect (percent receptor signaling in presence of test compound, relative lux units relative to the SCH23390 control) | Compound effect (percent receptor signaling in presence of test compound, relative lux units relative to the SCH23390 control) [1]
26 | Br.C=CCN1CCc2c(cc(O)c(O)c2Cl)C(c2ccccc2)C1 (racemic) [Compound 336, (±)-Chloro-APB hydrobromide] | – | 77%
27 | Oc1cc2c(cc1O)[C@H]1c3ccccc3CN[C@@H]1CC2 (racemic) [Compound 398, Dihydrexidine hydrochloride] | 110 | –
28 | CCCCCCCCCCCCCCC[C@H](O)[C@H](N)CO (racemic) [Compound 406, DL-erythro-Dihydrosphingosine] | – | 88%
29 | Cl.Oc1cc2c(cc1O)C(c1ccccc1)CNCC2 (racemic) [Compound 444, (±)-SKF-38393 hydrochloride] | 101 | –
30 | COc1cc(CC(C)N)c(OC)cc1I.Cl (racemic) [Compound 447, (±)-DOI hydrochloride] | 86 | –
31 | CC(N)c1cccc(Cl)c1Cl.Cl (racemic) [Compound 448, (±)-2,3-Dichloro-alpha-methylbenzylamine hydrochloride] | 84 | –
32 | Cl.NCCCC(N)(C(=O)O)C(F)F (racemic) [Compound 467, DL-alpha-Difluoromethylornithine hydrochloride] | – | 94%
33 | CCCCCCCCCCCCCCCC(=O)NCC(COP(=O)([O-])OCC[N+](C)(C)C)OCC (racemic) [Compound 488, rac-2-Ethoxy-3-hexadecanamido-1-propylphosphocholine] | 42 | –
34 | CCCCCCCCCCCCCCCCCC(=O)NCC(COP(=O)([O-])OCC[N+](C)(C)C)OCC (racemic) [Compound 489, rac-2-Ethoxy-3-octadecanamido-1-propylphosphocholine] | 65 | –
35 | Br.Cc1o[nH]c(=O)c1CC(N)C(=O)O (racemic) [Compound 563, (±)-AMPA hydrobromide] | – | 101%
36 | COc1cc(C(O)C(=O)O)ccc1O (racemic) [Compound 573, (±)-Vanillylmandelic acid] | 115 | –
37 | NC(Cc1cc(O)c(O)cc1O)C(=O)O (racemic) [Compound 584, 6-Hydroxy-DL-DOPA] | 101 | –
38 | NC(C(=O)O)C(O)C(=O)O (racemic) [Compound 585, DL-threo-beta-hydroxyaspartic acid] | – | 118%
39 | Br.CCCN(CCC)C1CCc2cccc(O)c2C1 (racemic) [Compound 602, (±)-8-Hydroxy-DPAT hydrobromide] | – | 102%
40 | Br.CCCN(CCC)C1CCc2ccc(O)cc2C1 (racemic) [Compound 606, (±)-7-Hydroxy-DPAT hydrobromide] | – | 62%
41 | N[C@H](C(=O)O)c1cc(O)no1 (racemic) [Compound 642, (±)-Ibotenic acid] | 105 | –
42 | CC(C)Cc1ccc(C(C)C(=O)O)cc1 (racemic) [Compound 646, (±)-Ibuprofen] | 98 | –
43 | COC(=O)C(C)(N)Cc1ccc(O)cc1.Cl (racemic) [Compound 759, alpha-Methyl-DL-tyrosine methyl ester hydrochloride] | 101 | –
44 | CC(N)(C(=O)O)c1ccc(C(=O)O)cc1 (racemic) [Compound 771, (±)-alpha-Methyl-4-carboxyphenylglycine] | – | 108%
45 | COCCc1ccc(OCC(O)CNC(C)C)cc1.COCCc1ccc(OCC(O)CNC(C)C)cc1.O=C(O)C(O)C(O)C(=O)O (racemic) [Compound 777, (±)-Metoprolol (+)-tartrate] | 98 | –
46 | COc1ccc(CCN(C)CCCC(C#N)(c2cc(OC)c(OC)c(OC)c2)C(C)C)cc1OC.Cl (racemic) [Compound 782, (±)-Methoxyverapamil hydrochloride] | – | 88%
47 | CC(N)(Cc1ccc(O)c(O)c1)C(=O)O (racemic) [Compound 797, (±)-3-(3,4-dihydroxyphenyl)-2-methyl-DL-alanine] | – | 99%
48 | C[C@@H]1O[C@H](C[N+](C)(C)C)C[C@H]1O.[Cl-] (racemic) [Compound 814, (±)-Muscarine chloride] | 104 | –
49 | COc1cc(C(O)CN)ccc1O.Cl (racemic) [Compound 862, (±)-Normetanephrine hydrochloride] | 81 | –
